Source: patent US12678419B2, “Compounds” (Sitryx Therapeutics Limited, priority 2020, dated 2026)
Where “and” joins values, the source holds several entries; their conditions need not be identical. Equal values may be shown once.

Assays:
[1] = test system: IL-1β cytokine output from THP-1s; assay: THP-1 AlphaLISA IL-1β cytokine assay; format: cell-based; conditions: Homo sapiens, LPS then nigericin, Table 1
Method: (§1) The cytokine inhibition profiles of compounds of formula (I) were determined in a differentiated THP-1 cell assay. All assays were performed in RPMI-1640 growth medium (Gibco), supplemented with 10% fetal bovine serum (FBS; Gibco), 1% penicillin-streptomycin and 1% sodium pyruvate unless specified otherwise. The IL-1β and IL-6 cytokine inhibition assays were each run in a background of differentiated THP-1 cells as described below. All reagents described were from Sigma-Aldrich unless specified otherwise. Compounds were prepared as 10 mM DMSO stocks.
(§2) THP-1 cells were expanded as a suspension up to 80% confluence in appropriate growth medium. Cells were harvested, suspended, and treated with an appropriate concentration of phorbol 12-myristate 13-acetate (PMA) over a 72 hr period (37° C./5% CO2).
(§3) Following 72 hrs of THP-1 cell incubation, cellular medium was removed and replaced with fresh growth media containing 1% of FBS. Working concentrations of compounds were prepared separately in 10% FBS treated growth medium and pre-incubated with the cells for 30 minutes (37° C./5% CO2). Following the 30 minute compound pre-incubation, THP-1s were treated with an appropriate concentration of LPS and the THP-1s were subsequently incubated for a 24 hr period (37° C./5% CO2). An appropriate final concentration of Nigericin was then dispensed into the THP-1 plates and incubated for 1 hour (37° C./5% CO2) before THP-1 supernatants were harvested and collected in separate polypropylene 96-well holding plates.
(§4) Reagents from each of the IL-1β and IL-6 commercial kits (Perkin Elmer) were prepared and run according to the manufacturer's instructions. Subsequently, fluorescence signal detection in a microplate reader was measured (EnVision® Multilabel Reader, Perkin Elmer).
(§5) Percentage inhibition was calculated per cytokine by normalising the sample data to the high and low controls used within each plate (+/− LPS respectively). Percentage inhibition was then plotted against compound concentration and the 50% inhibitory concentration (IC50) was determined from the resultant concentration-response curve.

[2] = test system: IL-6 cytokine output from THP-1s; assay: THP-1 AlphaLISA IL-6 cytokine assay; format: cell-based; conditions: Homo sapiens, LPS then nigericin, Table 1
Method: as §1, §2, §3, §4, §5

[3] = test system: NRF2 (nuclear factor erythroid 2-related factor 2); assay: NRF2 +/-GSH activation assay (DiscoverX PathHunter NRF2 translocation kit, U2OS cells); format: cell-based; conditions: for Emax (%) +GSH / Emax (%) −GSH: normalised to dimethyl fumarate high control
human hepatocytes = assay: Hepatocyte stability assay, human; format: in vitro ADME; conditions: 10 μM compound
Source text: (§6) Defrosted cryo-preserved hepatocytes (viability >70%) were used to determine the metabolic stability of a compound via calculation of intrinsic clearance (Clint; a measure of the removal of a compound from the liver in the absence of blood flow and cell binding). Clearance data are particularly important for in vitro work as they can be used in combination with in vivo data to predict the half-life and oral bioavailability of a drug.
(§7) The metabolic stability in hepatocytes assay involves a time-dependent reaction using both positive and negative controls. The cells were pre-incubated at 37° C. and spiked with test compound (and positive control); samples were taken at pre-determined time intervals were analysed to monitor the change in concentration of the initial drug compound over 60 minutes. A buffer incubation reaction (with no hepatocytes present) acted as a negative control and two cocktail solutions, containing compounds with known high and low clearance values (verapamil/7-hydroxycoumarin and propranolol/diltiazem), acted as positive controls. • 1. The assay was run with a cell concentration of 0.5×10^6 cells/mL in Leibovitz buffer. • 2. All compounds and controls were run in duplicate. • 3. Compound concentration was 10 μM. • 4. All compounds and controls were incubated with both cells and buffer to show turnover was due to hepatic metabolism. • 5. All wells on the incubation plate had 326.7 μL of either cells or buffer added. • 6. Prior to assay, cell and buffer-only incubation plates were preincubated for 10 mins at 37° C. • 7. The assay was initiated by adding compounds, 3.3 μL of 1 mM in 10% DMSO-90% Buffer; final DMSO concentration was 0.1%. • 8. Samples were taken at regular timepoints (0, 5, 10, 20, 40, 60 min) until 60 mins. • 9. Sample volume was 40 μL and was added to 160 μL of crash solvent (acetonitrile with internal standard) and stored on ice. • 10. At the end of the assay, the crash plates were centrifuged at 3500 rpm for 20 mins at 4° C. • 11. 80 μL of clear supernatant was removed and mixed with 80 μL of deionised water before being analysed by LC-MS/MS.
(§8) Raw LC-MS/MS data was exported to, and analysed in, Microsoft Excel for determination of intrinsic clearance. The percentage remaining of a compound was monitored using the peak area of the initial concentration as 100%. Intrinsic clearance and half-life values were calculated using a graph of the natural log of percentage remaining versus the time of reaction in minutes. Half-life (min) and intrinsic clearance (Clint in μL min^−1 10^−6 cells) values were calculated using the gradient of the graph (the elimination rate constant, k) and Equations 1 and 2.

[4] = Hepatocyte stability assay, human; format: in vitro ADME; conditions: human, cryopreserved hepatocytes, 10 μM compound, read-out: T½
Source text: as §6, §7, §8

[5] = Hepatocyte stability assay, mouse; format: in vitro ADME; conditions: mouse, cryopreserved hepatocytes, 10 μM compound, read-out: T½
Source text: as §6, §7, §8

mouse hepatocytes = assay: Hepatocyte stability assay, mouse; format: in vitro ADME; conditions: 10 μM compound
Source text: as §6, §7, §8

[6] = THP-1, differentiated THP-1 cells

| Compound | IC50 [1, 6] [µM] | IC50 [2, 6] [µM] | EC50 ([3]; +GSH) | EC50 ([3]; −GSH) | Clint (μL min^−1 10^−6 cells) (human hepatocytes) | half-life at 10 μM [4] [min] | half-life at 10 μM [5] [min] | Clint (μL min^−1 10^−6 cells) (mouse hepatocytes) | Emax (%) +GSH ([3]; +GSH) | Emax (%) −GSH ([3]; −GSH) | IC50 ([1]; differentiated THP-1 cells) [µM] | IC50 ([2]; differentiated THP-1 cells) [µM] |
| --- | --- | --- | --- | --- | --- | --- | --- | --- | --- | --- | --- | --- |
| C=C(CC(=O)OC1(C)Cc2ccc(Cl)cc2C1)C(=O)OCC(=O)O (stereo not shown) [Example 7, 2-((4-((5-chloro-2-methyl-2,3-dihydro-1H-inden-2-yl)oxy)-2-methylene-4-oxobutanoyl)oxy)acetic acid] | – | – | 22.3 µM | 14.5 µM | 17 | 86 | 10 | 142 | 135% | 155% | > 31.6 | 8.2 |
| C=C(CC(=O)OC1CCc2c(Cl)cc(Cl)cc21)C(=O)OCCC(=O)O (single isomer, unassigned; enantiomer 1) [Example 14, 3-((4-((4,6-dichloro-2,3-dihydro-1H-inden-1-yl)oxy)-2-methylene-4-oxobutanoyl)oxy)propanoic acid (Enantiomer 1)] | 2.8 | – | 36.7 µM | 27.8 µM | 19 | 75 | 7 | 224 | 118% | 193% | – | – |
| C=C(CC(=O)OC1Cc2ccc(Cl)cc2C1)C(=O)OCC(=O)O (stereo not shown) [Example 1, 2-((4-((5-chloro-2,3-dihydro-1H-inden-2-yl)oxy)-2-methylene-4-oxobutanoyl)oxy)acetic acid] | 29.2 | 10.2 | 34.6 µM | 25.6 µM | 3 | 449 | 41 | 46 | 125% | 139% | – | – |
| C=C(CC(=O)OC1CCc2cc(C(F)(F)F)ccc21)C(=O)OCC(=O)O (stereo not shown) [Example 17, 2-((2-methylene-4-oxo-4-((5-(trifluoromethyl)-2,3-dihydro-1H-inden-1-yl)oxy)butanoyl)oxy)acetic acid] | 2.8 | – | 35.4 µM | 29.2 µM | 6 | 227 | 21 | 72 | 184% | 305% | – | – |
| C=C(CC(=O)OC1Cc2cc(Cl)c(Cl)cc2C1)C(=O)OCC(=O)O [Example 4, 2-((4-((5,6-dichloro-2,3-dihydro-1H-inden-2-yl)oxy)-2-methylene-4-oxobutanoyl)oxy)acetic acid] | 12 | 4.6 | 16.5 µM | 7.5 µM | 13 | 119 | 16 | 83 | 182% | 196% | – | – |

Continued, in another order:

| IC50 [1, 6] [µM] | IC50 [2, 6] [µM] | EC50 ([3]; +GSH) | EC50 ([3]; −GSH) | Clint (μL min^−1 10^−6 cells) (human hepatocytes) | half-life at 10 μM [4] [min] | half-life at 10 μM [5] [min] | Clint (μL min^−1 10^−6 cells) (mouse hepatocytes) | Compound | Emax (%) +GSH ([3]; +GSH) | Emax (%) −GSH ([3]; −GSH) | IC50 ([1]; differentiated THP-1 cells) [µM] | IC50 ([2]; differentiated THP-1 cells) [µM] |
| --- | --- | --- | --- | --- | --- | --- | --- | --- | --- | --- | --- | --- |
| 7.9 | 3 | 7.7 µM | 4.1 µM | 9 | 166 | < 3 | >460 | C=C(CC(=O)OC1C(C)(C)c2cc(F)c(F)cc2C1(C)C)C(=O)OCC(=O)O [Example 26, 2-((4-((5,6-difluoro-1,1,3,3-tetramethyl-2,3-dihydro-1H-inden-2-yl)oxy)-2-methylene-4-oxobutanoyl)oxy)acetic acid] | 145% | 216% | – | – |
| 7.9 | 3.2 | 4 µM | 5.6 µM | 37 | 35 | 3 | 483 | C=C(CC(=O)OC1(C)Cc2cc(Cl)c(Cl)cc2C1)C(=O)OCC(=O)O [Example 21, 2-((4-((5,6-dichloro-2-methyl-2,3-dihydro-1H-inden-2-yl)oxy)-2-methylene-4-oxobutanoyl)oxy)acetic acid] | 55% | 151% | – | – |
| 1.2 | 1.2 | – | – | 190 | 9 | < 3 | >460 | C=C(CC(=O)OC1CCc2c(Cl)cc(Cl)cc21)C(=O)O[C@@H](CC(=O)O)C(F)(F)F (single isomer, unassigned; diastereomer b) [Example 23] | – | – | – | – |
| 1.7 | 1.2 | – | – | 252 | 7 | < 3 | >460 | C=C(CC(=O)OC1CCc2c(Cl)cc(Cl)cc21)C(=O)O[C@H](CC(=O)O)C(F)(F)F (single isomer, unassigned; diastereomer a) [Example 22] | – | – | – | – |
| 9.6 | 9.6 | 22.9 µM | 11.3 µM | 29 | 61 | 6 | 272 | C=C(CC(=O)OC1CCCc2cc(C(F)(F)F)ccc21)C(=O)OCC(=O)O (single isomer, unassigned; enantiomer 1) [Example 31, 2-((2-methylene-4-oxo-4-((6-(trifluoromethyl)-1,2,3,4-tetrahydronaphthalen-1-yl)oxy)butanoyl)oxy)acetic acid (Enantiomer 1)] | 137% | 141% | – | – |
| 11.9 | 8.6 | 35.1 µM and 37.5 µM | 12.2 µM and 22.2 µM | 9 | 169 | 16 | 97 | C=C(CC(=O)OC1CCc2cc(C(F)(F)F)ccc21)C(=O)OCC(=O)O (single isomer, unassigned; enantiomer 1) [Example 27, 2-((2-methylene-4-oxo-4-((5-(trifluoromethyl)-2,3-dihydro-1H-inden-1-yl)oxy)butanoyl)oxy)acetic acid (Enantiomer 1)] | 139% and 136% | 157% and 201% | – | – |
